Reference: PubChem BioAssay AID1897 (NMMLSC, 2009)
Active and inactive are the calls of the source. The rule behind the calls is not given here.

The molecules below were run against Mitogen-activated protein kinase kinase kinase 2 (Homo sapiens) + Dual specificity mitogen-activated protein kinase kinase 5 (Homo sapiens) (UniProt Q9Y2U5+Q13163) (assay: inhibitors of MEK5 binding to MEKK2, dose response, biochemical, bead multiplex flow cytometry, wildtype (AID 1897)). Settings: MEK5-MEKK2 PB1 binding.
Sequence of Mitogen-activated protein kinase kinase kinase 2 (Homo sapiens) + Dual specificity mitogen-activated protein kinase kinase 5 (Homo sapiens) (Q13163 whole entry, looked up): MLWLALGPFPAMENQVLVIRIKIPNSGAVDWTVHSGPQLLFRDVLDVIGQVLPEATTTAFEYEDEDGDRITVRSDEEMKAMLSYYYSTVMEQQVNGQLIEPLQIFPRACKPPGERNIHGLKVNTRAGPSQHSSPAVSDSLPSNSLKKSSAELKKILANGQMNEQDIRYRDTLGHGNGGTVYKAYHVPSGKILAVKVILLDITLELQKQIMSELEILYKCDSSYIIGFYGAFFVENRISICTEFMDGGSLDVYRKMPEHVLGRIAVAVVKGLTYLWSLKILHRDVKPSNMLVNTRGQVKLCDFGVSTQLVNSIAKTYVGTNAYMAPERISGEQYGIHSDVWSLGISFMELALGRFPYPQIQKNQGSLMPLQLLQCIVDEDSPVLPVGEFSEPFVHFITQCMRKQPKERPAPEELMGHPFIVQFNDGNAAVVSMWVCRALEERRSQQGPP
Sequence of Mitogen-activated protein kinase kinase kinase 2 (Homo sapiens) + Dual specificity mitogen-activated protein kinase kinase 5 (Homo sapiens) (Q9Y2U5 whole entry, looked up): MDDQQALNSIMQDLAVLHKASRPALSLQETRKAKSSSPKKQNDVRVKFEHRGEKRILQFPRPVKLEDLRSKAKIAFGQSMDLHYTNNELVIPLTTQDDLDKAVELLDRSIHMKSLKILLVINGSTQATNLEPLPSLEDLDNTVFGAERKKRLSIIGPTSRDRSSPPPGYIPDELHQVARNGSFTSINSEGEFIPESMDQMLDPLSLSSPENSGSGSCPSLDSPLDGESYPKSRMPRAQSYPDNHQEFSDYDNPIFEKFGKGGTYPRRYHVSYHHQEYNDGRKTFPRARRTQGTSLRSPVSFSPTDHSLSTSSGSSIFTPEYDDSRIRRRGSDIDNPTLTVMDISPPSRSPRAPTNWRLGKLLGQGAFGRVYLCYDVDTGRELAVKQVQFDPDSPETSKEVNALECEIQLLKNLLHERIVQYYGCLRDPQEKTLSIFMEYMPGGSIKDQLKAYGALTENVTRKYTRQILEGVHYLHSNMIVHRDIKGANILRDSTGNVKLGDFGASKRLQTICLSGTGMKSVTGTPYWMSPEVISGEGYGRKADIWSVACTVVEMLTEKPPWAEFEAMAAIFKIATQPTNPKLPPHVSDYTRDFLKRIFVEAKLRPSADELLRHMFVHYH
In the case of `CCOC(=O)c1c(C)n(-c2ccc(C)cc2)c2ccc(OCC(O)CN3CCN(C)CC3)cc12` (stereo unspecified), the EC50 is reported as > 30 µM (inactive).
Work on `Nc1ccc(Nc2ccccc2N)cc1` yielded an EC50 of 23.6 µM.
With `CCc1ccc(-c2nn(-c3ccccc3)cc2CSC(=N)N)cc1` the EC50 was 5.12 µM.
For `COc1ccc2nc(C)cc(N/N=C/c3cccc(OC)c3O)c2c1`, the EC50 was > 30 µM (inactive).
In the case of `CC(=O)c1c(C)[nH]c(C(=O)NC2=NCCS2)c1C`, the EC50 is reported as > 30 µM (inactive).
In the case of `CCN(Cc1ccccc1)S(=O)(=O)c1ccc(C(=O)N(CCCN(C)C)c2nc3ccc(F)cc3s2)cc1`, the EC50 is reported as 5.81 µM.
In the case of `COc1ccc(-c2[nH]ncc2CN2CCCCCCC2)c(OC)c1`, the EC50 is reported as > 30 µM (inactive).
`CN1C(=CC=C2C=C(I)C(=O)C(I)=C2)C(C)(C)c2ccccc21` was tested, and the EC50 was 9.16 µM.
Molecule `CCOc1cccc2sc(N(CCCN(C)C)C(=O)c3ccc(S(=O)(=O)N4CCc5ccccc5C4)cc3)nc12` has an EC50 of 13.2 µM.
`Cc1sc(NC(=O)c2ccccc2)c(C(c2ccccn2)N2CCN(CCO)CC2)c1C` (stereo unspecified) was tested, and the EC50 was > 30 µM (inactive).
For `CCN(CC)CCOC(=O)c1ccc(NC(=O)c2cn(-c3ccccc3)nc2-c2cccs2)cc1`, the EC50 was > 30 µM (inactive).
With `N=C(N)SCc1cn(-c2ccccc2)nc1-c1ccc(Br)cc1` the EC50 was 3.13 µM.
`NC(=O)CSc1nnc(Cc2ccc3c(c2)OCO3)o1` was tested, and the EC50 was > 30 µM (inactive).
`CCc1ccc(Nc2n[n+](-c3ccccc3)c(-c3ccc(OCc4ccccc4)cc3)s2)cc1` was tested, and the EC50 was 5.48 µM.
With `S=C(Nc1cccc(Cl)c1)N(CCCN1CCCC1)Cc1cccn1Cc1ccc(Cl)cc1` the EC50 was 5.75 µM.
For `C#CCOCCOCCOCCNc1nc(N2CCN(C(=O)C(Cc3cc4ccccc4[nH]3)n3cc(C(N)C(C)CC)nn3)CC2)nc(N2CCN(C(=O)C(Cc3cc4ccccc4[nH]3)n3cc(C(N)C(C)CC)nn3)CC2)n1` (stereo unspecified), the EC50 was 1.75 µM.
With `C#CCOCCOCCOCCNc1nc(N2CCN(C(=O)[C@H]([C@@H](C)CC)n3cc([C@@H](N)CC(C)C)nn3)CC2)nc(N2CCN(C(=O)[C@H](Cc3cc4ccccc4[nH]3)n3cc([C@@H](N)Cc4ccc(O)cc4)nn3)CC2)n1` the EC50 was > 30 µM (inactive).
For `COc1ccccc1N1CCN(S(=O)(=O)c2ccc(Cl)s2)CC1`, the EC50 was > 30 µM (inactive).
`COc1ccc(Cn2c(SCc3ccc(C)cc3)nc3cc(OC)c(OC)cc3c2=N)cc1Cl` was tested, and the EC50 was 1.97 µM.
With `COc1ccc2[nH]c3c(C)c4ccncc4c(C)c3c2c1` the EC50 was > 30 µM (inactive).
With `C#CCOCCOCCOCCNc1nc(N2CCN(C(=O)[C@H]([C@@H](C)CC)n3cc([C@@H](N)Cc4ccc(O)cc4)nn3)CC2)nc(N2CCN(C(=O)[C@H](Cc3cc4ccccc4[nH]3)n3cc([C@@H](N)C(C)CC)nn3)CC2)n1` (stereo partly specified) the EC50 was 3.73 µM.
With `CCCSc1ncnc2sc(C)c(C)c12` the EC50 was > 30 µM (inactive).
For `Cc1cc2cc(CNC(=O)NC3CCCCC3)ccc2[nH]1`, the EC50 was 4.13 µM.
`C#CCOCCOCCOCCNc1nc(N2CCN(C(=O)C(Cc3ccc(O)cc3)n3cc(C(N)CC(C)C)nn3)CC2)nc(N2CCN(C(=O)C(Cc3cc4ccccc4[nH]3)n3cc(C(N)Cc4ccc(O)cc4)nn3)CC2)n1` (stereo unspecified) gave an EC50 of 6.12 µM.
`Nc1cc2nc[nH]c2cc1N` showed an EC50 of 10.7 µM.
Molecule `Cc1cc2ccccc2n1CCNC(=O)c1ccc(Br)o1` has an EC50 of 3.48 µM.
`CCOc1ccc(C2=C/C(=C/c3cccnc3)C(=O)O2)cc1` was tested, and the EC50 was > 30 µM (inactive).
In the case of `S=c1[nH]nc(-c2ccc(Cl)cc2)n1-c1ccc2c(c1)OCCO2`, the EC50 is reported as > 30 µM (inactive).
With `O=C1c2ccccc2-c2onc3ccc(NCc4ccco4)c1c23` the EC50 was > 30 µM (inactive).
`c1ccc(CNc2nc(NCc3ccccc3)c3ccccc3n2)cc1` was tested, and the EC50 was > 30 µM (inactive).
Molecule `C#CCOCCOCCOCCNc1nc(N2CCN(C(=O)[C@H](Cc3ccc(O)cc3)n3cc([C@@H](N)C(C)CC)nn3)CC2)nc(N2CCN(C(=O)[C@H](Cc3cc4ccccc4[nH]3)n3cc([C@@H](N)Cc4ccc(O)cc4)nn3)CC2)n1` (stereo partly specified) has an EC50 of 12.5 µM.
With `CCN(CC)CCNC(=O)c1ccc(NC(=O)c2cn(-c3ccccc3)nc2-c2cccs2)cc1` the EC50 was 5.94 µM.
`CN1CCN(CC(O)COc2ccc(C34CC5CC(CC(C5)C3)C4)cc2)CC1` (stereo unspecified) was tested, and the EC50 was > 30 µM (inactive).
In the case of `CCCCCCCCCCOC(=O)Cn1c(COc2ccccc2C)[n+](C)c2ccccc21`, the EC50 is reported as > 30 µM (inactive).
`COc1ccc(CNC[C@@H](CCCCN(C)Cc2ccc(OC)cc2)N2C[C@H](c3ccccc3)N(CCc3ccc(Cl)c(Cl)c3)C(=O)C2=O)cc1` gave an EC50 of 1.48 µM.
`CCCCCc1cc(=O)oc2c(C(CCN3CCCCC3)c3ccc4c(c3)OCO4)c(OC)cc(OC)c12` (stereo unspecified) was tested, and the EC50 was > 30 µM (inactive).
With `C#CCOCCOCCOCCNc1nc(N2CCN(C(=O)[C@H]([C@@H](C)CC)n3cc([C@@H](N)CO)nn3)CC2)nc(N2CCN(C(=O)[C@H](Cc3cc4ccccc4[nH]3)n3cc([C@@H](N)Cc4ccc(O)cc4)nn3)CC2)n1` the EC50 was 0.52 µM.
Work on `CCCCCCCCCCOC(=O)Cn1c(COc2ccc(C)cc2)[n+](C)c2ccccc21` yielded an EC50 of 1.8 µM.
In the case of `NC(=NCCCCCCN=C(N)/N=C(\N)Nc1ccc(Cl)cc1)/N=C(\N)Nc1ccc(Cl)cc1`, the EC50 is reported as 0.67 µM.
For `COc1ccc(NC(=O)N(Cc2cc3cc(C)ccc3[nH]c2=O)CC2CCCO2)cc1` (stereo unspecified), the EC50 was > 30 µM (inactive).
`C/C(=N\NC(=O)c1cc(O)cc(O)c1)c1ccc(NC(=O)Cc2ccccc2)cc1` was tested, and the EC50 was > 30 µM (inactive).

Same assay, conditions: MEK5-MEKK2 PB1 binding, measured here: Ki from binding competition
In the case of `Nc1ccc(Nc2ccccc2N)cc1`, the Ki is reported as 21.1 µM.
`CN1C(=CC=C2C=C(I)C(=O)C(I)=C2)C(C)(C)c2ccccc21` gave a Ki of 8.2 µM.
With `Cc1cc2cc(CNC(=O)NC3CCCCC3)ccc2[nH]1` the Ki was 3.69 µM.
Molecule `Nc1cc2nc[nH]c2cc1N` has a Ki of 9.61 µM.
For `Cc1cc2ccccc2n1CCNC(=O)c1ccc(Br)o1`, the Ki was 3.12 µM.
